One experiment relates to MCF-7. As to the kind of experiment: In vitro anti-proliferative activity, MTT assay. The class given is cell-based. As to conditions: Homo sapiens, MCF7, 48 h, read-out: In vitro IC50 (nM) Mean ± SD MCF-7.
The target of the next experiment is CDK2/cyclin A2 (Homo sapiens, UniProt P24941). As to the kind of experiment: CDK2/cyclin A2 Kinase-Glo Plus luminescence kinase assay.

SMILES strings stand for the structures.

Regarding `CC(=O)OCCSc1nc2c3cnn(C(=O)CNc4ccc(C)cc4)c3ncn2n1` [Compound 13, 2-((7-(p-Tolylglycyl)-7H-pyrazolo[4,3-e][1,2,4]triazolo[1,5-c]pyrimidin-2-yl)thio)ethyl acetate], the 50% inhibitory concentration (IC50) with MCF-7 amounted to 59 ± 0.94 nM; on CDK2/cyclin A2, 0.081 ± 0.004 µM.
On the same counts, the results for `Cc1ccc(NCC(=O)n2ncc3c2ncn2nc(SCC#N)nc32)cc1` [Compound 8, 2-((7-(p-Tolylglycyl)-7H-pyrazolo[4,3-e][1,2,4]triazolo[1,5-c]pyrimidin-2-yl)thio)acetonitrile] are 53 ± 2.7 nM and 0.589 ± 0.033 µM.
For `Cc1ccc(NCC(=O)n2ncc3c(=N)n(N)cnc32)cc1` [Compound 4, 1-(5-Amino-4-imino-4,5-dihydro-1H-pyrazolo[3,4-d]pyrimidin-1-yl)-2-(p-tolylamino)ethan-1-one], the IC50 in the experiment on MCF-7 came out at 79 ± 1.4 nM.
The same measure, in the same setting: the result for `Cc1ccc(NCC(=O)n2ncc3c2ncn2nc(SCCO)nc32)cc1` [Compound 12, 1-(2-((2-Hydroxyethyl)thio)-7H-pyrazolo[4,3-e][1,2,4]triazolo[1,5-c]pyrimidin-7-yl)-2-(p-tolylamino)ethan-1-one] reads 97 ± 1.7 nM; that for `Cc1ccc(NCC(=O)n2ncc3c(=N)n(N[C@@H]4OC[C@@H](O)[C@H](O)[C@H]4O)cnc32)cc1` [Compound 6, 1-(4-Imino-5-((β-D-xylopyranosyl)amino)-4,5-dihydro-1H-pyrazolo[3,4-d]pyrimidin-1-yl)-2-(p-tolylamino)ethan-1-one], 552 ± 23 nM; that for `Cc1ccc(NCC(=O)n2ncc3c2ncn2[nH]c(=S)nc32)cc1` [Compound 7, 1-(2-Thioxo-2,3-dihydro-7H-pyrazolo[4,3-e][1,2,4]triazolo[1,5-c]pyrimidin-7-yl)-2-(p-tolylamino)ethan-1-one], 951 ± 33 nM.
Regarding `Cc1ccc(NCC(=O)n2ncc3c2ncn2nc(SCC(O)CO)nc32)cc1` (stereo not shown) [Compound 10, 1-{2-[(2,3-Dihydroxypropyl)thio]-7H-pyrazolo[4,3-e][1,2,4]triazolo[1,5-c]pyrimidin-7-yl}-2-(p-tolylamino)ethan-1-one], the concentration for half-maximal inhibition (IC50) in the experiment on MCF-7 was 53 ± 2.1 nM; on CDK2/cyclin A2, 0.336 ± 0.019 µM.
For `Cc1ccc(NCC(=O)n2ncc3c(=N)n(N[C@@H]4O[C@H](CO)[C@@H](O)[C@H](O)[C@H]4O)cnc32)cc1` [Compound 5, 1-(4-Imino-5-((β-D-glucopyranosyl)amino)-4,5-dihydro-1H-pyrazolo[3,4-d]pyrimidin-1-yl)-2-(p-tolylamino)ethan-1-one], in that order: 88 ± 0.99 nM and 1.02 ± 0.057 µM.
Turning to `COC(CSc1nc2c3cnn(C(=O)CNc4ccc(C)cc4)c3ncn2n1)OC` [Compound 9, 1-(2-((2,2-Dimethoxyethyl)thio)-7H-pyrazolo[4,3-e][1,2,4]triazolo[1,5-c]pyrimidin-7-yl)-2-(p-tolylamino)ethan-1-one], the half-maximal inhibitory concentration (IC50) in the experiment with MCF-7 came out at 95 ± 4 nM.
As for `CNC(=O)c1cc(Oc2ccc(NC(=O)Nc3ccc(Cl)c(C(F)(F)F)c3)cc2)ccn1` [Sorafenib, reference compound], the 50% inhibitory concentration (IC50) in the experiment on MCF-7 amounted to 144 ± 0.47 nM.
With `CC(=O)OCC(CSc1nc2c3cnn(C(=O)CNc4ccc(C)cc4)c3ncn2n1)OC(C)=O` (stereo not shown) [Compound 11, 3-((7-(p-Tolylglycyl)-7H-pyrazolo[4,3-e][1,2,4]triazolo[1,5-c]pyrimidin-2-yl)thio)propane-1,2-diyl diacetate], the IC50 came out at 91 ± 4.2 nM in the experiment on MCF-7 and 3.65 ± 0.203 µM at CDK2/cyclin A2.

The values above are taken from paper PMC9112407 (RSC Advances, 2022).
